The record followed here is patent US12144824B2, “Method for enhancing embryo implantation” (The Flinders University of South Australia, priority 2018, dated 2024).

Data set [1] has as its system LIF production, human Ishikawa endometrial adenocarcinoma cell line. Description: LIF production by Ishikawa cells exposed to copper or zinc chloride solutions (multiplex immunoassay).
Procedure: (§1) The human Ishikawa endometrial adenocarcinoma cell line (Sigma-Aldrich; St Louis, MO, United States of America) was used to model the endometrium's response to copper and zinc metal ions (Cu^2+ and Zn^2+). Cells were grown in T75 flasks (Nalge Nunc International, Rochester, NY, United States of America) in Ishikawa medium, consisting of αMEM (Sigma-Aldrich) supplemented with 5% foetal bovine serum (Invitrogen Corp, Carlsbad, CA, United States of America), 2 mM glutamine (Sigma-Aldrich) and 1% non-essential amino acids (Sigma-Aldrich) without antibiotics at 37° C. under a gas atmosphere of 5% CO2 in air. Medium was refreshed every 48 hours. Cells were subcultured using 0.25% trypsin/EDTA (Invitrogen). For metal ion exposure experiments, cells were seeded onto 2-well chamber slides (Ibidi, Martinsried, Germany). After the endometrial cells had attached and reached 80-90% confluence they were then exposed to copper and zinc metal ions using two approaches (salt solution or metal implant) as described below.
(§2) Copper or zinc chloride (Sigma-Aldrich) was dissolved in Ishikawa medium to produce salt solutions at various concentrations in the range of 0.2 μM and 200 μM, before being applied to Ishikawa cells seeded into 2-well chamber slides for a period of 8 hours. Following the 8 hours exposure, culture media were removed, centrifuged at 1000 g for 10 minutes at 4° C. to pellet any cellular debris, and then the supernatants were stored in Eppendorf tubes at −80° C. Subsequently, the supernatants were assayed for both LIF and VEGF content using a multiplex immunoassay system (elisakit.com, Scoresby, VIC, Australia).
The test system of data set [2] is VEGF production, human Ishikawa endometrial adenocarcinoma cell line. Description: VEGF production by Ishikawa cells exposed to copper or zinc chloride solutions (multiplex immunoassay). In kind it is cell-based. How it is done:
Medium was refreshed every 48 hours. Cells were subcultured using 0.25% trypsin/EDTA (Invitrogen).

In data set [3] the test system is LIF production, human Ishikawa endometrial adenocarcinoma cell line.
Procedure: as §1, §2
In another data set the test system is murine day 3 embryos. In words: Mouse embryo development and blastocyst outgrowth assay on fibronectin-coated plates. The settings on record: short term exposure. In kind it is cell-based. How it is done: Ishikawa cells were seeded onto 2-well chamber slides in Ishikawa medium until they reached 80-90% confluence. Then, 5 minutes prior to exposure to metal implants, the medium was changed to G2 embryo culture medium, and the Ishikawa cells exposed to copper, zinc or copper-zinc bimetal implants for either 2 or 5 minutes duration (or remained unexposed (control)), and the resulting G2 culture media collected 8 hours later.
To determine whether metal ions were capable of enhancing embryo implantation, post-compaction mouse embryos were exposed to the “conditioned media” prior to undergoing outgrowth assays. In particular, pronucleate oocytes were collected from superovulated female F1 mice ˜21-22 hours post-hCG. Following cumulus cell removal, oocytes were cultured in 20 μl drops (10 embryos/drop) of G1 medium under paraffin oil (Vitrolife) at 37° C. in 6% CO2, 5% O2 and 89% N2. After 48 hours, compacting and morulae stage embryos were randomly transferred to culture in either (i) control G2 medium (Vitrolife) that had not been exposed to Ishikawa cells; (ii) individual culture in 2 μl of control, Ishikawa exposed G2; or (iii) individual culture in 2 μl drops of 2 minute copper-zinc bimetal implant exposed G2 medium. After 48 hours, the capacity of blastocysts to undergo outgrowth was assessed in the following manner. […] All images were collected and analysed at matching magnification.

Some results are limits rather than exact numbers.

`[Cl][Cu][Cl]` [CuCl2, copper chloride]: the “increase in endometrial LIF production” value in data set [1] (CuCl2 200 μM) was 4 fold. Further, the “LIF production increase above baseline” value in data set [1] (CuCl2 200 μM, 8 hours) came to 420%. Besides, in data set [1] (Example 1), the “lowest amount confirmed to elicit an increase in endometrial LIF” value worked out at 20 µM. In addition, in data set [1] (salt solution in Ishikawa medium, 8 hours exposure), the “concentration producing a significant increase in LIF production” value is listed as “exceeding 2 μM”. In data set [2] (8 hours exposure), the “concentration of peak VEGF production” value turned out to be 100 µM and the “concentration producing a significant increase in VEGF production” value is on record as “above 20 μM”. Besides, the “lowest amount confirmed to elicit an increase in endometrial VEGF” value in data set [2] (Example 1) is 20 µM. Further, in data set [2] (in vitro), the “concentration exceeding which a relative decline in endometrial VEGF production was observed” value is “exceeding 100 μM”. Besides, in data set [3], the “toxicity in relation to LIF production” value is “No toxicity”.

For `[Cl-].[Cl-].[Zn+2]` [ZnCl2, zinc chloride], the “dose above which toxicity, with a reduction in LIF production, was observed” value in data set [1] (8 hours exposure) is “exceeding 150 μM”. Moreover, in data set [2] (8 hours exposure), the “concentration from which VEGF production appeared reduced” value is at least 150 µM and the “increase in VEGF compared to controls” value is recorded as “no significant increase”.

As for `[Cu+2]` [copper ions], in the data set with murine day 3 embryos, the “toxicity to pre-implantation embryo development” value is listed as “not significant”.

As to `[Zn+2]` [zinc ions], the “toxicity to pre-implantation embryo development” value in the data set on murine day 3 embryos is “not significant”.
